From US20230000876A1, “TREATING CANCERS WITH A CYCLIN-DEPENDENT KINASE INHIBITOR” (Nuvation Bio Inc., priority 2021, published 2023)
Like-named read-outs stand apart in the source and are kept apart here.

Assay: Pharmacokinetics and brain distribution after single oral dose, rats
Type: in vivo, male Sprague-Dawley rats
Conditions: for Kp at 6 h / concentration at 6 h / Cmax / Tmax / concentration at 1 h / concentration at 2 h / concentration at 4 h / concentration at 8 h / concentration at 12 h / AUC(0-inf) / half-life / concentration at 24 h: male, Sprague-Dawley, rat; for Kp at 6 h: po
Protocol: The pharmacokinetics and brain distribution in maleCD1 mice and Sprague-Dawley rats following a single oral (PO) dose was evaluated. The compound of formula (I) was administered once at 10 mg/kg to mice and at 1, 10, 30, and 100 mg/kg to rats. All doses, compound of formula (I) concentrations, and derived PK parameters are expressed as the free base of the compound of formula (I).
The in-life portion of these studies was performed by Alliance Pharma (Malvern, Pa.) according to Protocols 200107-02 (mice) and 1910158-02 (rats). Animals were assigned randomly to the dose groups and were fasted 12 hours prior to dosing. Water was available ad libitum. The compound of formula (I) (as an HCl salt) was given to male CD1 mice at 10 mg/kg single PO dose, while in Sprague-Dawley rats, the doses were 1, 10, 30, and 100 mg/kg. In both studies, the compound of formula (I) was formulated in 0.5% hydroxypropyl methylcellulose (HPMC)/0.2% Tween 80 and the dosing volume was 5 mL/kg for all dose groups.
Whole blood was collected at 2, 4, 6, and 12 hours post dose from mice and predose and 1, 2, 4, 8, 12, and 24 hours post dose from rats into tubes containing dipotassium ethylenediaminetetraacetic acid (K2EDTA). Blood was obtained from 3 mice and 4 rats per time-point per dose level. The blood samples were processed into plasma analyzed at Alliance Pharma using the method as described below.
The brain tissue was collected from mice at 2, 4, 6, and 12 hours post dose and was collected from rats at 6 hours post dose given 1, 10, 30, or 100 mg/kg of the compound of formula (I). Brain tissue was obtained from 3 mice per time-point at the 10 mg/kg dose level and 4 rats per dose level at the 6-hour post dose time-point.
Brain tissue was rinsed by phosphate-buffered saline (PBS) buffer immediately after harvest, weighed, and mixed with solvent (MeOH:H2O [volume over volume of 20:80]) with a ratio of tissue to solvent of 1:4 (weight over volume). […] After homogenization, the homogenate was aliquoted out for sample analysis.
The concentrations of the compound of formula (I) in the plasma and brain homogenate were determined versus a calibration curve prepared in plasma and naïve brain homogenate, respectively. Samples were deproteinized with acetonitrile containing tolbutamide as internal standard. After centrifugation, the supernatants were analyzed by liquid chromatography with tandem mass spectrometry (LC-MS/MS). Chromatography was performed with a Zorbax SB-C18 (50×2.1 mm, […]) column under gradient conditions described in Table 22. Mobile Phase A (0.1% formic acid [FA] in water) and Mobile Phase B (0.1% FA in acetonitrile) were delivered as a flow rate of 0.8 mL/min. LC-MS/MS was performed using a positive TurboIonSpray® interface on a SciexAPI 4000 and multiple-reaction monitoring (MRM) over a concentration range of 1 ng/mL to 1000 (rats) or 2000 (mice) ng/mL for the plasma and brain homogenate samples.
The mean plasma concentration-time data of the compound of formula (I) was used to determine the pharmacokineticparameters by standard noncompartmental methods using Phoenix® WinNonlin (version 8.2.0; Certara, Princeton, N.J.). Graphs were plotted in Prism® (version 2.3.0; GraphPad, San Diego, Calif.). Concentrations were rounded to 3 significant figures.

[1] = plasma, single PO 1 mg/kg (HCl salt, as free base)
[2] = plasma, single PO 10 mg/kg (HCl salt, as free base)
[3] = plasma, single PO 30 mg/kg (HCl salt, as free base)
[4] = plasma, single PO 100 mg/kg (HCl salt, as free base)

CC(C)N1CCOc2c(F)cc(-c3nc(Nc4ccc(C5CCN(C)CC5)cn4)ncc3F)cc21 [Compound (I), 5-fluoro-4-(8-fluoro-4-isopropyl-3,4-dihydro-2H-benzo[b][1,4]oxazin-6-yl)-N-(5-(1-methylpiperidin-4-yl)pyridin-2-yl)pyrimidin-2-amine]
Kp at 6 h (brain, 1 mg/kg, single PO 1 mg/kg, 6 h, read-out: Brain:Plasma Ratio): 6.3 | Kp at 6 h (brain, 10 mg/kg, single PO 10 mg/kg, 6 h, read-out: Brain:Plasma Ratio): 6.1 | Kp at 6 h (brain, 30 mg/kg, single PO 30 mg/kg, 6 h, read-out: Brain:Plasma Ratio): 11 | Kp at 6 h (brain, 100 mg/kg, 6 hours post-dose, each dose level (1, 10, 30, 100 mg/kg PO), read-out: Brain-to-plasma concentration ratio): > 6 | Kp at 6 h (brain, 100 mg/kg, single PO 100 mg/kg, 6 h, read-out: Brain:Plasma Ratio): 12 | concentration at 6 h (brain, single PO 1 mg/kg, 6 h, read-out: Brain Conc): 58.9 ng/mL | concentration at 6 h (brain, single PO 10 mg/kg, 6 h, read-out: Brain Conc): 548 ng/mL | concentration at 6 h (brain, single PO 30 mg/kg, 6 h, read-out: Brain Conc): 1970 ng/mL | concentration at 6 h (brain, single PO 100 mg/kg, 6 h, read-out: Brain Conc): 2800 ng/mL | Cmax (plasma, single PO 1 mg/kg): 9.37 ng/mL | Tmax (plasma, single PO 1 mg/kg): 6 h | concentration at 1 h [1]: 1.52 ng/mL | concentration at 2 h [1]: 2.41 ng/mL | concentration at 4 h [1]: 4.91 ng/mL | concentration at 6 h (plasma, single PO 1 mg/kg (HCl salt, as free base), 6 h, read-out: Mean Plasma Concentration): 9.37 ng/mL | concentration at 8 h [1]: 6.42 ng/mL | concentration at 12 h [1]: 4.64 ng/mL | AUC(0-inf) (plasma, single PO 10 mg/kg): 1080 ng·h/mL | Cmax (plasma, single PO 10 mg/kg): 90.4 ng/mL | Tmax (plasma, single PO 10 mg/kg): 6 h | half-life (plasma, single PO 10 mg/kg): 7.54 h | concentration at 1 h [2]: 8.45 ng/mL | concentration at 2 h [2]: 25.9 ng/mL | concentration at 4 h [2]: 51.6 ng/mL | concentration at 6 h (plasma, single PO 10 mg/kg (HCl salt, as free base), 6 h, read-out: Mean Plasma Concentration): 90.4 ng/mL | concentration at 8 h [2]: 52.5 ng/mL | concentration at 12 h [2]: 46.3 ng/mL | concentration at 24 h (plasma, single PO 10 mg/kg (HCl salt, as free base), 24 h): 12.9 ng/mL | AUC(0-inf) (plasma, single PO 30 mg/kg): 3870 ng·h/mL | Cmax (plasma, single PO 30 mg/kg): 180 ng/mL | Tmax (plasma, single PO 30 mg/kg): 6 h | half-life (plasma, single PO 30 mg/kg): 13.4 h | concentration at 1 h [3]: 43.2 ng/mL | concentration at 2 h [3]: 73.1 ng/mL | concentration at 4 h [3]: 136 ng/mL | concentration at 6 h (plasma, single PO 30 mg/kg (HCl salt, as free base), 6 h, read-out: Mean Plasma Concentration): 180 ng/mL | concentration at 8 h [3]: 155 ng/mL | concentration at 12 h [3]: 117 ng/mL | concentration at 24 h (plasma, single PO 30 mg/kg (HCl salt, as free base), 24 h): 66.4 ng/mL | Cmax (plasma, single PO 100 mg/kg): 243 ng/mL | Tmax (plasma, single PO 100 mg/kg): 6 h | concentration at 1 h [4]: 81.2 ng/mL | concentration at 2 h [4]: 142 ng/mL | concentration at 4 h [4]: 151 ng/mL | concentration at 6 h (plasma, single PO 100 mg/kg (HCl salt, as free base), 6 h, read-out: Mean Plasma Concentration): 243 ng/mL | concentration at 8 h [4]: 170 ng/mL | concentration at 12 h [4]: 193 ng/mL | concentration at 24 h (plasma, single PO 100 mg/kg (HCl salt, as free base), 24 h): 224 ng/mL | Mean Plasma Concentration (single PO 1 mg/kg (HCl salt, as free base), 24 h): BQL
